Broadly, the IC50 is the point on the concentration scale where inhibition reaches its midpoint.

Structures can show the parent of a compound that is named as a salt. Where a SMILES comes first, the peptide text is derived from it. Bridges are numbered along the chain shown (N, C = ends). [ ]: non-standard residue; d: D form. The star is where a group is joined. Trp(7-Me) = Cc1cccc2c(C[C@H](N)C(=O)O)c[nH]c12; Lys(Me3) = C[N+](C)(C)CCCC[C@H](N)C(=O)O; 2Nal = N[C@@H](Cc1ccc2ccccc2c1)C(=O)O; AEF = NCCOc1ccc(C[C@H](N)C(=O)O)cc1; 3Pal = N[C@@H](Cc1cccnc1)C(=O)O; Lys(Me) = CNCCCC[C@H](N)C(=O)O; Pen = CC(C)(S)[C@H](N)C(=O)O; Thp = NC1(C(=O)O)CCOCC1; Me2NCH2CH2 = CN(C)CC*; Tfa = O=C(C(F)(F)F)*; Sar = CNCC(=O)O

Sequence of Signal transducer and activator of transcription 3 (P40763 whole entry): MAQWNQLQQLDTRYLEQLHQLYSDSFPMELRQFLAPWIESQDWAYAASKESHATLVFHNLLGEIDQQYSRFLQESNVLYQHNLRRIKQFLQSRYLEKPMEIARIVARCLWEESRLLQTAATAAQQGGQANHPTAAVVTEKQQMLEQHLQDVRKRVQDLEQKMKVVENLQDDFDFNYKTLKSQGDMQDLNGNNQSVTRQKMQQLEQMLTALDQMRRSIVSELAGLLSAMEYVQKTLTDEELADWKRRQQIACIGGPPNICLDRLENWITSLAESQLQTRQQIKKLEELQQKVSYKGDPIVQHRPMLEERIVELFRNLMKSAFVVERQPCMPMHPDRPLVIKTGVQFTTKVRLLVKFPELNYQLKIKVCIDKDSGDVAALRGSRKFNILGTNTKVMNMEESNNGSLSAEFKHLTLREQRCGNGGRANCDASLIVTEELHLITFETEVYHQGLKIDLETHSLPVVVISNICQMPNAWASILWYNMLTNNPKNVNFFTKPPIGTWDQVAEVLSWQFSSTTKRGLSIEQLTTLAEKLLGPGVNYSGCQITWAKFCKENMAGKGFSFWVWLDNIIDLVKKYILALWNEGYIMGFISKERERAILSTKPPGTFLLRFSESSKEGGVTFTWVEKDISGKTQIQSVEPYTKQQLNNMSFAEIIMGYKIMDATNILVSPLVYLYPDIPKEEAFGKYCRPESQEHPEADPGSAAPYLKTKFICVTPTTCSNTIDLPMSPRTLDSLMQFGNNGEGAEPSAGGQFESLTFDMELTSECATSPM

The test concerns the target Signal transducer and activator of transcription 3 (Homo sapiens, UniProt P40763). As to the kind of experiment: Inhibition of STAT3 phosphorylation in human PBMC cells preincubated for 30 mins followed by addition of IL-23 and measured after 10 mins.
`CC(=O)NCCCC[C@@H]1NC(=O)[C@H](Cc2c[nH]c3c(C)cccc23)NC(=O)[C@H]([C@@H](C)O)NC(=O)[C@H](CC(N)=O)NC(=O)[C@@H](NC(=O)CCOCCOCC[N+](C)(C)C)C(C)(C)SSC(C)(C)[C@@H](C(=O)N[C@@H](Cc2ccc(OCCN)cc2)C(=O)N[C@@H](Cc2ccc3ccccc3c2)C(=O)NC2(C(=O)N[C@@H](CCC(=O)O)C(=O)N[C@@H](CC(N)=O)C(=O)N[C@@H](Cc3cccnc3)C(=O)N(C)CC(N)=O)CCOCC2)NC1=O` showed a half-maximal inhibitory concentration (IC50) of 6 pM.

`CC(=O)NCCCC[C@@H]1NC(=O)[C@H](Cc2c[nH]c3c(C)cccc23)NC(=O)[C@H]([C@@H](C)O)NC(=O)[C@H](CC(N)=O)NC(=O)[C@@H](NC(C)=O)C(C)(C)SSC(C)(C)[C@@H](C(=O)N[C@@H](Cc2ccc(OCCCCC[N+](C)(C)C)cc2)C(=O)N[C@@H](Cc2ccc3ccccc3c2)C(=O)NC2(C(=O)N[C@@H](CCCCNC(C)=O)C(=O)N[C@@H](CC(N)=O)C(=O)N[C@@H](Cc3cccnc3)C(=O)N(C)CC(N)=O)CCOCC2)NC1=O` registered an IC50 of 8 pM.

`CC(=O)N[C@@H](CCCC[N+](C)(C)C)C(=O)N[C@@H]1C(=O)N[C@@H](CC(=O)N(C)C)C(=O)N[C@@H]([C@@H](C)O)C(=O)N[C@@H](Cc2c[nH]c3c(C)cccc23)C(=O)N[C@@H](CCCCN(C)C(C)=O)C(=O)N[C@H](C(=O)N[C@@H](Cc2ccc(OCCN(C)C)cc2)C(=O)N[C@@H](Cc2ccc3ccccc3c2)C(=O)NC2(C(=O)N[C@@H](CCC(=O)O)C(=O)N[C@@H](CC(N)=O)C(=O)N[C@@H](Cc3cccnc3)C(=O)N(C)CC(=O)N(C)C)CCOCC2)C(C)(C)SSC1(C)C` (Ac-[Lys(Me3)][Pen]D(NMe2)T[Trp(7-Me)][Lys(Me)](Ac)[Pen]Y(Me2NCH2CH2)[2Nal][Thp]EN[3Pal][Sar]-NMe2; disulfide 2-7) came in with an IC50 of 8 pM.

Turning to `CC(=O)N(C)CCCC[C@@H]1NC(=O)[C@H](Cc2c[nH]c3c(C)cccc23)NC(=O)[C@H]([C@@H](C)O)NC(=O)[C@H](CC(=O)N(C)C)NC(=O)[C@@H](NC(=O)C(F)(F)F)C(C)(C)SSC(C)(C)[C@@H](C(=O)N[C@@H](Cc2ccc(OCCN(C)C)cc2)C(=O)N[C@@H](Cc2ccc3ccccc3c2)C(=O)NC2(C(=O)N[C@@H](CCC(=O)O)C(=O)N[C@@H](CC(N)=O)C(=O)N[C@@H](Cc3cccnc3)C(=O)N(C)CC(=O)N(C)C)CCOCC2)NC1=O` (Tfa-[Pen]D(NMe2)T[Trp(7-Me)][Lys(Me)](Ac)[Pen]Y(Me2NCH2CH2)[2Nal][Thp]EN[3Pal][Sar]-NMe2; disulfide 1-6), half-maximal inhibition (IC50) was put at 3 pM.

On to `Cc1cccc2c(C[C@@H]3NC(=O)[C@H]([C@@H](C)O)NC(=O)[C@H](CC(N)=O)NC(=O)[C@@H](NC(=O)C(F)(F)F)C(C)(C)SSC(C)(C)[C@@H](C(=O)N[C@@H](Cc4ccc(OCCN)cc4)C(=O)N[C@@H](Cc4ccc5ccccc5c4)C(=O)NC4(C(=O)N[C@@H](CCC(=O)N(C)C)C(=O)N[C@@H](CC(N)=O)C(=O)N[C@@H](Cc5cccnc5)C(=O)N(C)CC(N)=O)CCOCC4)NC(=O)[C@H](CCC(=O)N(C)C)NC3=O)c[nH]c12` (Tfa-[Pen]NT[Trp(7-Me)]E(NMe2)[Pen][AEF][2Nal][Thp]E(NMe2)N[3Pal][Sar]-NH2; disulfide 1-6), for which half-maximal inhibition (IC50) required 8 pM.
